The source of these data is ChEMBL document CHEMBL1201862, “PubChem BioAssay data set” (2004).

Experiment in all cases: inhibition of tumour cell growth, NCI panel, 48 h
The test system of experiment [1] is KM-20L2.
Experiment [2] concerns DMS-273.
In experiment [3] the test system is HOP-18.
Experiment [4] relates to DLD-1.
Experiment [5] relates to XF498.
For experiment [6], the system named is DMS-114.
Experiment [7] has as its system SNB-78.
The test system of experiment [8] is LXFL 529.
Experiment [9] concerns RXF 631.

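Test compounds were applied to cells in 96-well plates for 48 hours at 5 doses. GI50 is the concentration that inhibits growth by half.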 Calls of active or inactive are those of the source. Rule as the data show it: active = GI50 up to about 1.1 µM and inactive = higher.

For the compound `O=C(Nc1ccc(Sc2ccc(/N=N/c3c(O)c(S(=O)(=O)O)cc4cc(S(=O)(=O)O)ccc34)cc2)cc1)c1ccc(/N=N/c2c(O)c(S(=O)(=O)O)cc3cc(S(=O)(=O)O)ccc23)cc1`, the GI50 in [1] is 63.5 µM (inactive); in experiment [2], 15.1 µM (inactive); in experiment [3] it was 23 µM (inactive); in [4] it was 51.1 µM (inactive); in [5], 36.4 µM (inactive); in experiment [6], 5.42 µM (inactive). Moreover, the GI50 is 25.8 µM (inactive) in experiment [7] and 18.1 µM (inactive) in experiment [8].
Regarding `Cc1cc(Cl)ccc1NC(=O)CC1SC(NC(=O)c2ccccc2Cl)=NC1=O` (stereo not drawn), the GI50 was 28.6 µM (inactive) in experiment [1]; 18.9 µM (inactive) in [2]; 19.1 µM (inactive) in experiment [4]; 14.8 µM (inactive) in experiment [5]; 20.4 µM (inactive) in [6]; 21.6 µM (inactive) in experiment [7]. Besides, the GI50 in [8] is 18 µM (inactive).
In the case of `O=C1CSC(/C(=C\c2ccc(Cl)cc2)c2nc3ccccc3[nH]2)=N1`, the GI50 in experiment [1] is 31 µM (inactive); in experiment [2] it was 21 µM (inactive); in experiment [4], 16.3 µM (inactive); in experiment [5] it was 1.36 µM (inactive); in [7] it was 41.3 µM (inactive); in [8], 20.8 µM (inactive).
Regarding `COC(=O)C(Cc1cc(OC)c(OC)c(OC)c1)C(=O)OC`, the GI50 in experiment [1], in experiment [2], in experiment [4], in experiment [5], in experiment [6] and in [8] was > 320 µM (inactive) in each case. Besides, the GI50 in [9] was > 320 µM (inactive).
As for `O=C(N/C(=C\c1cc(Cl)ccc1Cl)c1nc2c(O)nc(S)nc2[nH]1)c1ccccc1`, the GI50 is 41.4 µM (inactive) in experiment [1]; 15.2 µM (inactive) in experiment [4]; > 48.6 µM (inactive) in experiment [5]; 25.2 µM (inactive) in [6]; 55.3 µM (inactive) in experiment [7]; 15.6 µM (inactive) in experiment [8]. In addition, the GI50 in experiment [9] was 20.4 µM (inactive).
On to `COc1cccc(NC(=O)/C(CC(=O)CC(c2ccccc2)c2c(O)c3ccccc3oc2=O)=N\NC(C)(C)C)c1OC` (stereo not drawn), for which the GI50 in [1] is 51.4 µM (inactive); in [4], 40.6 µM (inactive); in experiment [6], 22.8 µM (inactive); in [7] it was > 100 µM (inactive); in experiment [8], 41.3 µM (inactive).
Regarding `CCOC(=O)/C=C1\Nc2ccccc2C(c2ccccc2)=NC1OC(C)=O` (stereo not drawn), the GI50 in experiment [2], in experiment [4], in [6], in experiment [7] and in experiment [8] was > 100 µM (inactive) throughout.
With `O=C(N/C(=C\c1ccc(/C=C(\NC(=O)c2ccccc2)c2nc3cc([N+](=O)[O-])ccc3[nH]2)cc1)c1nc2cc([N+](=O)[O-])ccc2[nH]1)c1ccccc1`, the GI50 in experiment [1] was 37.8 µM (inactive); in experiment [2], 51.6 µM (inactive); in experiment [3] it was > 100 µM (inactive); in experiment [4] it was 43.8 µM (inactive); in experiment [6] it was 18.8 µM (inactive); in experiment [7], > 100 µM (inactive). Moreover, the figures for the GI50 in experiment [8] and in [9] were 28.4 µM (inactive) and 34.5 µM (inactive), respectively.
For `O=C1CCC2(c3ccccc3)Nc3ccc(Cl)cc3N12` (stereo not drawn), the GI50 was > 100 µM (inactive) in experiment [1]; > 100 µM (inactive) in experiment [4]; > 100 µM (inactive) in experiment [5]; 63.5 µM (inactive) in experiment [6]; > 100 µM (inactive) in [7]; > 100 µM (inactive) in [8]. Moreover, the GI50 in experiment [9] was > 100 µM (inactive).
In the case of `Cc1ccc(NC(=O)CSc2nnc(Cc3ccccc3)o2)c(C)c1`, the GI50 in experiment [1], in experiment [2], in [3], in experiment [5], in experiment [6] and in experiment [7] was > 100 µM (inactive) throughout. Further, the GI50 in [8] is > 100 µM (inactive).
Turning to `c1ccc2c(c1)nnn1c3cnccc3nc21`, the GI50 in experiment [1] is 53.1 µM (inactive); in experiment [2], 15.9 µM (inactive); in [3] it was 53.5 µM (inactive); in experiment [4] it was 27.5 µM (inactive); in experiment [6], 20.2 µM (inactive); in [7], 25.5 µM (inactive). The GI50 in [8] was 31.8 µM (inactive).
In the case of `Cc1cc(N(CCC#N)CCC#N)ccc1/C=C1N=C(/C=C\c2ccccc2)OC\1=O`, the GI50 in experiment [1], in [2], in experiment [3], in experiment [4], in experiment [5] and in experiment [6] was > 100 µM (inactive) each time. Besides, the GI50 in [7] and in experiment [8] was > 100 µM (inactive) each time.
As for `CCc1cccc(C(C)C)c1N1C(=O)C(=O)C(c2nc3ccccc3s2)C(=O)C1=O`, the GI50 is 48.4 µM (inactive) in [1]; > 45.3 µM (inactive) in [2]; > 50 µM (inactive) in experiment [3]; 20.5 µM (inactive) in experiment [4]; > 50 µM (inactive) in experiment [5]; 29.6 µM (inactive) in experiment [6]. Moreover, the GI50 in experiment [7] was > 50 µM (inactive); in experiment [8], 28.9 µM (inactive).
On to `Cc1ccc(NCCO)cc1`, for which the GI50 in experiment [1] was > 100 µM (inactive); in experiment [4], > 100 µM (inactive); in experiment [5] it was > 100 µM (inactive); in [6] it was 61.7 µM (inactive); in [7] it was > 100 µM (inactive); in experiment [8], > 100 µM (inactive).
For the compound `CC1c2ccccc2Cn2cc3c(c21)C(=O)c1cccc(OP(=O)(O)OCc2ccccc2)c1C3=O` (stereo not drawn), the GI50 in experiment [1] is > 100 µM (inactive); in [4], > 100 µM (inactive); in experiment [5], 34.3 µM (inactive); in experiment [6] it was > 100 µM (inactive); in experiment [8], > 100 µM (inactive); in experiment [9], > 100 µM (inactive).
On to `COC(=O)c1cc(Cl)ccc1NC(=O)c1ccc([N+](=O)[O-])cc1`, for which the GI50 in [1] was 21.3 µM (inactive); in [2], 21.6 µM (inactive); in experiment [4] it was 38.8 µM (inactive); in experiment [5] it was 14.4 µM (inactive); in experiment [6], 33.5 µM (inactive); in [7] it was 32.6 µM (inactive). Also, the GI50 is 25.8 µM (inactive) in experiment [8] and 17.6 µM (inactive) in [9].
Regarding `COC1C(O)CC(OC2CC(OC3CC(O[C@@H]4C(=O)c5c(cc6cc(OC7CC(OC8CC(O)C(O)C(C)O8)C(O)C(C)O7)c(C)c(O)c6c5O)C[C@H]4[C@H](OC)C(=O)[C@@H](O)[C@@H](C)O)OC(C)C3O)OC(C)C2O)OC1C` (stereo partly drawn), the GI50 in [1] was 0.0223 µM (active); in experiment [2] it was < 0.0168 µM (active); in [3], 0.0211 µM (active); in experiment [4] it was 0.177 µM (active); in experiment [5] it was < 0.01 µM (active); in experiment [6], 0.0272 µM (active). The GI50 in experiment [7] is < 0.01 µM (active); in experiment [8], 0.0129 µM (active).
`O=C(Cc1nc2ccc([N+](=O)[O-])cc2nc1O)C(=O)Nc1ccccc1[N+](=O)[O-]`: the GI50 in [1] is 87.3 µM (inactive); in experiment [2] it was > 100 µM (inactive); in experiment [4], > 100 µM (inactive); in experiment [6], 39.5 µM (inactive); in experiment [8] it was > 100 µM (inactive).
